# Data: PubChem BioAssay (NCI)
#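 Cells were grown in 96-well plates and exposed to each compound for 48 hours at five concentrations; endpoints were interpolated linearly between bracketing concentrations, or set to the highest concentration if not reached. Here, GI50 denotes the concentration required for 50% inhibition of growth. TGI is the concentration that stops growth completely.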
# Legend:
# Test in all cases: NCI-60 cell line screen, 48 h
# 786-0 renal = test system: 786-0 renal
# A498 renal = test system: A498 renal
# A549 NSCLC = test system: A549 NSCLC
# ACHN renal = test system: ACHN renal
# BT-549 breast = test system: BT-549 breast
# CAKI-1 renal = test system: CAKI-1 renal
# CCRF-CEM leukemia = test system: CCRF-CEM leukemia
# COLO 205 colon = test system: COLO 205 colon
# DU-145 prostate = test system: DU-145 prostate
# HCC-2998 colon = test system: HCC-2998 colon
# HCT-116 colon = test system: HCT-116 colon
# HCT-15 colon = test system: HCT-15 colon
# HL-60(TB) leukemia = test system: HL-60(TB) leukemia
# HOP-62 NSCLC = test system: HOP-62 NSCLC
# HOP-92 NSCLC = test system: HOP-92 NSCLC
# HS 578T breast = test system: HS 578T breast
# HT29 colon = test system: HT29 colon
# IGROV1 ovarian = test system: IGROV1 ovarian
# K-562 leukemia = test system: K-562 leukemia
# KM12 colon = test system: KM12 colon
# LOX IMVI melanoma = test system: LOX IMVI melanoma
# M14 melanoma = test system: M14 melanoma
# MALME-3M melanoma = test system: MALME-3M melanoma
# MCF7 breast = test system: MCF7 breast
# MDA-MB-231 breast = test system: MDA-MB-231 breast
# MDA-MB-435 = test system: MDA-MB-435
# MOLT-4 leukemia = test system: MOLT-4 leukemia
# NCI-H226 lung = test system: NCI-H226 lung
# NCI-H23 lung = test system: NCI-H23 lung
# NCI-H460 lung = test system: NCI-H460 lung
# NCI-H522 lung = test system: NCI-H522 lung
# NCI/ADR-RES ovarian = test system: NCI/ADR-RES ovarian
# OVCAR-3 ovarian = test system: OVCAR-3 ovarian
# OVCAR-4 ovarian = test system: OVCAR-4 ovarian
# OVCAR-5 ovarian = test system: OVCAR-5 ovarian
# OVCAR-8 ovarian = test system: OVCAR-8 ovarian
# PC-3 prostate = test system: PC-3 prostate
# RPMI-8226 leukemia = test system: RPMI-8226 leukemia
# SF-268 CNS = test system: SF-268 CNS
# SF-295 CNS = test system: SF-295 CNS
# SF-539 CNS = test system: SF-539 CNS
# SK-MEL-2 melanoma = test system: SK-MEL-2 melanoma
# SK-MEL-28 melanoma = test system: SK-MEL-28 melanoma
# SK-MEL-5 melanoma = test system: SK-MEL-5 melanoma
# SK-OV-3 ovarian = test system: SK-OV-3 ovarian
# SN12C renal = test system: SN12C renal
# SNB-19 CNS = test system: SNB-19 CNS
# SNB-75 CNS = test system: SNB-75 CNS
# SR leukemia = test system: SR leukemia
# SW-620 colon = test system: SW-620 colon
# T-47D breast = test system: T-47D breast
# TK-10 renal = test system: TK-10 renal
# U251 CNS = test system: U251 CNS
# UACC-257 melanoma = test system: UACC-257 melanoma
# UACC-62 melanoma = test system: UACC-62 melanoma
# UO-31 renal = test system: UO-31 renal
smiles,measurement,setting,value
COc1cc2c(c(OC)c1OC)-c1ccc(NCc3ccccc3)c(=O)cc1[C@@H](NC(C)=O)CC2,GI50,786-0 renal,745 nM
same,TGI,786-0 renal,46800 nM
same,GI50,A498 renal,248 nM
same,TGI,A498 renal,771 nM
same,GI50,A549 NSCLC,453 nM
same,TGI,A549 NSCLC,> 100000 nM
same,GI50,ACHN renal,1390 nM
same,TGI,ACHN renal,> 66600 nM
same,GI50,BT-549 breast,1410 nM
same,TGI,BT-549 breast,26100 nM
same,GI50,CAKI-1 renal,3230 nM
same,TGI,CAKI-1 renal,45800 nM
same,GI50,CCRF-CEM leukemia,340 nM
same,TGI,CCRF-CEM leukemia,> 100000 nM
same,GI50,COLO 205 colon,277 nM
same,TGI,COLO 205 colon,638 nM
same,GI50,DU-145 prostate,374 nM
same,TGI,DU-145 prostate,7910 nM
same,GI50,HCC-2998 colon,529 nM
same,TGI,HCC-2998 colon,13200 nM
same,GI50,HCT-116 colon,419 nM
same,TGI,HCT-116 colon,> 100000 nM
same,GI50,HCT-15 colon,1090 nM
same,TGI,HCT-15 colon,> 48400 nM
same,GI50,HL-60(TB) leukemia,353 nM
same,GI50,HOP-62 NSCLC,413 nM
same,TGI,HOP-62 NSCLC,16900 nM
same,GI50,HOP-92 NSCLC,318 nM
same,TGI,HOP-92 NSCLC,4100 nM
same,GI50,HS 578T breast,362 nM
same,TGI,HS 578T breast,43000 nM
same,GI50,HT29 colon,373 nM
same,TGI,HT29 colon,11900 nM
same,GI50,IGROV1 ovarian,595 nM
same,TGI,IGROV1 ovarian,16800 nM
same,GI50,K-562 leukemia,381 nM
same,TGI,K-562 leukemia,> 100000 nM
same,GI50,KM12 colon,374 nM
same,TGI,KM12 colon,19900 nM
same,GI50,LOX IMVI melanoma,444 nM
same,TGI,LOX IMVI melanoma,14900 nM
same,GI50,M14 melanoma,359 nM
same,TGI,M14 melanoma,23200 nM
same,GI50,MALME-3M melanoma,720 nM
same,TGI,MALME-3M melanoma,40200 nM
same,GI50,MCF7 breast,337 nM
same,TGI,MCF7 breast,19700 nM
same,GI50,MDA-MB-231 breast,461 nM
same,TGI,MDA-MB-231 breast,11700 nM
same,GI50,MDA-MB-435,187 nM
same,TGI,MDA-MB-435,486 nM
same,GI50,MOLT-4 leukemia,489 nM
same,TGI,MOLT-4 leukemia,> 87500 nM
same,GI50,NCI-H226 lung,1010 nM
same,TGI,NCI-H226 lung,17100 nM
same,GI50,NCI-H23 lung,628 nM
same,TGI,NCI-H23 lung,54900 nM
same,GI50,NCI-H460 lung,369 nM
same,TGI,NCI-H460 lung,18000 nM
same,GI50,NCI-H522 lung,327 nM
same,TGI,NCI-H522 lung,1520 nM
same,GI50,NCI/ADR-RES ovarian,18700 nM
same,TGI,NCI/ADR-RES ovarian,> 100000 nM
same,GI50,OVCAR-3 ovarian,309 nM
same,TGI,OVCAR-3 ovarian,2820 nM
same,GI50,OVCAR-4 ovarian,989 nM
same,TGI,OVCAR-4 ovarian,45900 nM
same,GI50,OVCAR-5 ovarian,723 nM
same,TGI,OVCAR-5 ovarian,> 100000 nM
same,GI50,OVCAR-8 ovarian,444 nM
same,TGI,OVCAR-8 ovarian,65000 nM
same,GI50,PC-3 prostate,406 nM
same,TGI,PC-3 prostate,43700 nM
same,GI50,RPMI-8226 leukemia,531 nM
same,TGI,RPMI-8226 leukemia,16300 nM
same,GI50,SF-268 CNS,788 nM
same,TGI,SF-268 CNS,> 73500 nM
same,GI50,SF-295 CNS,617 nM
same,TGI,SF-295 CNS,18300 nM
same,GI50,SF-539 CNS,309 nM
same,TGI,SF-539 CNS,3510 nM
same,GI50,SK-MEL-2 melanoma,643 nM
same,TGI,SK-MEL-2 melanoma,22800 nM
same,GI50,SK-MEL-28 melanoma,499 nM
same,TGI,SK-MEL-28 melanoma,31500 nM
same,GI50,SK-MEL-5 melanoma,422 nM
same,TGI,SK-MEL-5 melanoma,1940 nM
same,GI50,SK-OV-3 ovarian,294 nM
same,TGI,SK-OV-3 ovarian,833 nM
same,GI50,SN12C renal,629 nM
same,TGI,SN12C renal,45300 nM
same,GI50,SNB-19 CNS,638 nM
same,TGI,SNB-19 CNS,> 100000 nM
same,GI50,SNB-75 CNS,318 nM
same,TGI,SNB-75 CNS,25200 nM
same,GI50,SR leukemia,436 nM
same,TGI,SR leukemia,> 44300 nM
same,GI50,SW-620 colon,391 nM
same,TGI,SW-620 colon,> 100000 nM
same,GI50,T-47D breast,589 nM
same,TGI,T-47D breast,41500 nM
same,GI50,TK-10 renal,4820 nM
same,TGI,TK-10 renal,> 100000 nM
same,GI50,U251 CNS,368 nM
same,TGI,U251 CNS,11800 nM
same,GI50,UACC-257 melanoma,671 nM
same,TGI,UACC-257 melanoma,37500 nM
same,GI50,UACC-62 melanoma,526 nM
same,TGI,UACC-62 melanoma,22400 nM
same,GI50,UO-31 renal,4990 nM
same,TGI,UO-31 renal,44900 nM
